We go through one substance from patent US11225507B2, “Conformation switchable antimicrobial peptides and methods of using the same” (priority 2017, dated 2022).

One data set deals with H. pylori SS1. The data set is described as follows: Anti-H. pylori efficacy in vivo (infected C57BL/6J mice). On the set-up: species or system Helicobacter pylori. As to conditions: oral gavage once daily for 3 d, 2.6 μmol/kg. The procedure: Anti-H. pylori efficacy in vivo. […] For triple therapy, mice were first administered omeprazole (a proton pump inhibitor) through oral gavage at a dose of 400 μmol/kg, followed by a lag time of 30 min before administration of amoxicillin (68.0 μmol/kg) and clarithromycin (19.1 μmol/kg). PL2 and PDL2 in 5% (vol/vol) DMSO (both at 2.6 μmol/kg) were administered through oral gavage once daily for a consecutive 3 d. Water solution with 5% DMSO was served as negative control group. Forty-eight hours after the last administration, mice were killed and the stomach was removed from the abdominal cavity. The stomach was cut along the greater curvature, and the gastric content was removed and rinsed with PBS. The stomach sections were used for assessment of bacterial colonization. For bacterial colonization, a gastric tissue section was suspended in 1 mL PBS and homogenized for H. pylori recovery. The homogenate was serially diluted and spotted onto Columbia agar plate containing vancomycin (20 μg/mL), amphotericin (2 μg/mL), bacitracin (30 μg/mL) and nalidixic acid (10 μg/mL). The plates were then incubated at 37° C. under microaerobic conditions for 5 d, and bacterial colonies were enumerated and adjusted for dilutions.

Data set [1] is described as follows: Toxicity of PL2 in vivo after oral gavage. The note with it: mouse. More on the design: species or system mice. From the text:
Toxicity of PL2 in vivo. […] Mice were sacrificed on day 5, and the blood samples were collected for the analysis of alanine aminotransferase (ALT), aspartate aminotransferase (AST), creatinine, urea nitrogen, sodium ion and potassium ion levels. The colonic segment, stomach, liver, small intestine, kidney and feces of each mouse was gathered and homogenized with cold PBS (pH7.4). The stomachs were used to determine the expression of caspase 3 and caspase 8 using Caspase 3 Assay Kit (Sigma) and Caspase 8/FLICE Colorimetric Kit (Life technology), respectively. The colonic segment and feces were used to extract bacterial DNA. The stomach, small intestine, liver, and kidney were kept in formalin for H&E staining. The stomachs were also kept in formalin for terminal deoxynucleotidyl transferase dUTP nick end labeling (TUNEL) assay (S7100|ApopTag® Peroxidase In Situ Apoptosis Detection Kit). […] The inflammation and injury of stomach were scored by Dr. Liu in a blind manner based on the H&E staining. Inflammation was graded on a 0-3 ordinal scale based on the Sydney System as follows: chronic inflammation (mononuclear cell infiltration independent of lymphoid follicles); grade 0, no inflammation; grade 1, mild inflammation (slight increase in mononuclear cells); grade 2, moderate inflammation (dense but focal mononuclear inflammatory cells); and grade 3, severe inflammation (dense and diffuse mononuclear inflammatory cells). The appearance of the mucosa was graded as follows: 0, normal; 1, spotty changes in cellular staining characteristics of some surface epithelial cells in an otherwise normal mucosa (mild injury); 2, more generalized changes and/or disruption of the surface epithelium in several areas (moderate injury); 3, extensive mucosal destruction (severe injury).

The nature of data set [2]: Liposome dye leakage assay (ANTS/DPX efflux). How it is done: Liposome dye leakage assay. ANTS (12.5 mM) and DPX (45 mM) were dissolved in Tris buffer (pH=7.4). To a clean round-bottom flask, appropriate volumes of lipid stocks were added to make up 1 mL of CHCl3 (3:1 POPE (1-palmitoyl-2-oleoyl-sn-glycero-3-phosphoethanolamine)/POPG (1-palmitoyl-2-oleoyl-sn-glycero-3-phospho-(1′-rac-glycerol) (sodium salt)) vesicles, POPE (130 μL, 25 mg/mL CHCl3) and POPG (115 μL, 10 mg/mL CHCl3) were used). The solvent was removed by a stream of nitrogen gas to obtain a thin lipid film, which was then hydrated by 1 mL of ANTS/DPX solution. The mixture was left to hydrate for 1 h, after which it was subjected to 10 freeze-thaw cycles (using dry ice/acetone to freeze and warm water to thaw). The suspension was extruded 20 times through a polycarbonate membrane with 400 nm pore diameter. The excess dye was removed using Sephadex G-50 column as the eluent. The dye-filled vesicle fractions were diluted 200 times with Tris buffer. This suspension (90 μL) was subsequently mixed with polypeptide stock solutions (10 μL) at various pH (pH 7.4 or 4.0) on a 96-well black microplate (Greiner, flat bottom). Tris buffer (10 μL, pH 7.4 or 4.0) and Triton-X (0.1% v/v, 10 μL, pH 7.4 or 4.0) were employed as the negative and positive controls at corresponding pH, respectively. After 30 min, the fluorescence intensity in each well was recorded using the microplate reader with excitation and emission wavelengths of 380 and 520 nm, respectively. The percentage of leaked […] dye in each well was determined as follows: leakage (%)=[(F−F0)/(FTX−F0)]×100%, where F is the fluorescence intensity recorded in the well, F0 is the intensity in the negative control well, and FTX is the intensity in the positive control well.

In another data set the test system is E. coli MG1655. Kind of data set: Minimal inhibition concentration (MIC), E. coli MG1655. In kind it is cell-based, Escherichia coli. The note with it: pH 7.4. How it is done:
Minimal inhibition concentration (MIC). Gram-negative bacteria, DH5α and MG1655 (E. coli) were grown in LB medium at 37° C. For determination of the MIC, polypeptides were dissolved in media using serial dilutions from a stock solution. Into each well of a 96-well plate was added 200 μL of each concentration and 2 μL of bacteria (1×10^8 CFU (colony forming units)) in medium. The plate was incubated at 37° C. The optical density readings of microorganism solutions were measured after 24 h incubation. The MIC was considered as the lowest concentration of peptide where no visual growth of bacteria was detected.

Consider (PGA)18-r-(PHLG-MHH)20 [PL2], for which, in the data set with H. pylori SS1, the “decrease of bacterial burden in the stomach as compared with the control group” value is given as approximately 100 times. In data set [1], this substance came in with an ALT of 37.3 ± 0.5 U/L, an AST of 120.3 ± 17.9 U/L, a Creatinine of 8.7 ± 0.9 µM and a Potassium ion of 8.1 ± 0.2 mM. Besides, in data set [1], the Sodium ion turned out to be 149.4 ± 1.6 mM; the Urea nitrogen amounted to 6.8 ± 0.6 mM; the “histology of intestines, liver, and kidney (H&E staining)” value was “barely detectable histological abnormality”. In addition, the “dye leakage from anionic liposomes” value in data set [2] (pH 4.0) is recorded as “great dye leakage”. For the same substance, the “dye leakage from anionic liposomes” value in data set [2] (pH 7.4) is listed as “minimal dye leakage”. For the same substance, the “minimal inhibitory concentration (MIC)” value with E. coli MG1655 is given as “higher than 70 μM”.
